Patent US7709514B2, “Therapeutic molecules and methods-1” (Cortical Pty Ltd, priority 2002, dated 2010)

Tests used:
[1] = system: murine endotoxic shock model; assay: murine endotoxic shock model (LPS), cytokines by ELISA; type: in vivo, mice
Protocol: The activity of compound 5 was studied in the murine endotoxic shock model. This model has been previously shown to be dependent on MIF (21). Administration of a substance which inhibits the cytokine or biological activity of MIF would be expected to result in a reduction in serum levels of cytokines such as IL-1 or IL-6. Endotoxaemia was induced by intra-peritoneal injection of lipopolysaccharide (LPS) (15 mg/kg) in 400 μl saline. Mice were treated with a saline solution (control) only, a saline solution and LPS, or LPS and compound 5 at a dose of 15 mg/kg body weight, administered by intra-peritoneal injection at 24 hours, 12 hours and 1 hour before intra-peritoneal LPS injection. After 1.5 hours mice were humanely killed by CO2 inhalation then neck dislocation. Serum was obtained from blood obtained by cardiac puncture prior to death and measured for cytokines including interleukin 1 (IL-1) and interleukin 6 (IL-6) by ELISA. The production of IL-1 and IL-6 has been previously shown to be dependent on MIF (22). Macrophages were obtained by lavage of the peritoneal cavity using normal saline and placed into 24 well tissue culture plates for 18 hours in RPMI/10% FCS. The cultured peritoneal macrophage supernatants were then analysed for cytokines including IL-6. The peritoneal lavage supernatants were also analysed for cytokines including IL-6.
The effect of compound 5 was tested under a variety of conditions in animals exposed to endotoxic shock induced as above by the injection of 15 mg/kg LPS by intraperitoneal injection. In each case compounds were administered by intraperitoneal injection at a dose of 15 mg/kg. Compound 5 administration was associated with reductions in serum IL-1, IL-6, and TNF concentration whether administered by intraperitoneal injection (IP) or by oral gavage, and under a variety of administration regimens.

[2] = system: murine antigen induced arthritis; assay: murine antigen-induced arthritis, histological score; type: in vivo, mice; settings: 15 mg/kg IP once per 24 hours, day 28
Protocol: Antigen-induced arthritis was induced in mice. C57BL6/J male mice, aged 7-10 weeks old, were immunized on day 0 with 200 μg methylated BSA (mBSA) emulsified in 200 μl of Freund's complete adjuvant (FCA) injected subcutaneously into the flank skin. Mice were treated with compound 5, administered by intraperitoneal injection, once per 24 hours at a dose of 15 mg/kg body weight. After seven days, mice received 100 μg mBSA and 100 μl FCA by intradermal injection at the base of the tail. After a further 14 days, arthritis was induced by intra-articular injection of 30 μg mBSA in 10 μl of sterile saline into the left knee, the right knee being injected with sterile saline alone.
Arthritis was analysed histologically at day 28 after first immunisation. Knee joints were dissected and fixed in 10% buffered formalin for 7 days. Fixed tissues were decalcified for 3 weeks in 15% ethylene-diamine-tetra-acetic acid (EDTA), dehydrated and embedded in paraffin. Sagittal sections (5 μm) of the knee joint were stained with Safranin-O and counterstained with fast green/iron hematoxylin. Histological sections were scored from 0 to 3 for four parameters: Synovitis was defined as hyper-cellularity of the synovium including pannus formation. Joint space exudate was identified as leukocytes, discretely or in aggregates, in the joint space. Cartilage degradation was defined as the loss of Safranin-O staining of articular cartilage (0=full stained cartilage, 3=totally unstained cartilage). Bone damage was defined as the extent and depth of the subchondral bone invasion by pannus. A total score was also generated from the sum of these four parameters (maximum 12).

[3] = system: IL-1-induced proliferation of human rheumatoid arthritis FLS; assay: inhibition of human rheumatoid arthritis synovial fibroblast proliferation; type: cell-based
Protocol: Fibroblast-like synoviocytes (FLS) were obtained from synovium of rheumatoid (RA) patients undergoing joint replacement surgery and prepared according to Lacey et al (26). FLS were isolated using enzyme digestion and cultured in RPMI/10% fetal calf serum (FCS) as previously described. A single cell suspension was obtained by digesting minced synovial tissue with 2.4 mg/ml Dispase (grade II, 5 U/mg) 1 mg/ml collagenase (type II) and DNase (type 1). FLS were propagated in 10 cm culture plates in RPMI supplemented with 10% FCS at 37° C. in a 5% CO2 humidified incubator. Cells beyond 3rd passage were more than 99% CD45−. Cells were used between passages 4 and 9. Cells from four individual human RA donor FLS used.
To determine the effect of compound 5 on FLS proliferation, DNA synthesis was measured by [^3H] thymidine incorporation. FLS were seeded overnight at 0.5×10^5 cells per well in 24 well tissue culture plates in RPMI/10% FCS. Cell growth was synchronised by culturing FLS in RPMI/0.1% bovine serum albumin for 24 h. […] FLS were detached using Trypsin-EDTA, harvested using a cell harvester, and the radioactivity incorporated into DNA determined using a Wallac 1409 liquid scintillation counter. Results were expressed as the percentage of control (untreated) cell proliferation, and the mean±SEM of four experiments calculated.

CCCCCOC(=O)c1ccc2[nH]c(=O)[nH]c2c1 [Compound 5] was tested, and the “serum IL-1 concentration” value ([1]; FIG. 5, LPS alone vs LPS with compound 5) was “marked reduction”, the “Serum IL-1 at 1.5 h, LPS + cpd” value ([1]; IP injection 15 mg/kg at −24, −6, −1 h, LPS alone 42.49) was 39.82 and the “Serum IL-1 at 6 h, LPS + cpd” value ([1]; IP injection 15 mg/kg at −24, −6, −1 h, LPS alone 786.6) was 170.2. For the same molecule, the “Serum IL-1 at 1.5 h, LPS + cpd” value ([1]; IP injection 15 mg/kg at −24, −12, −1 h, LPS alone 484.8) was 283.8, the “Serum IL-6 at 1.5 h, LPS + cpd” value ([1]; IP injection 15 mg/kg at −24, −12, −1 h, LPS alone 92790) was 75260 and the “Serum IL-6 at 6 h, LPS + cpd” value ([1]; IP injection 15 mg/kg at −1 h, LPS alone 215100) was 150300. For the same molecule, the “Serum IL-1 at 1.5 h, LPS + cpd” value ([1]; IP injection 15 mg/kg at −18 h, LPS alone 301.5) was 105.9, the “Serum TNF at 1.5 h, LPS + cpd” value ([1]; IP injection 15 mg/kg at −18 h, LPS alone 4263) was 2422 and the “Serum IL-6” value ([1]; LPS 15 mg/kg IP, compound 15 mg/kg IP at 24, 12 and 1 hour before LPS, 1.5 hours after LPS, LPS only 261.05) was 99.78 ng/mL. The “Peritoneal lavage IL-6” value ([1]; LPS 15 mg/kg IP, compound 15 mg/kg IP at 24, 12 and 1 hour before LPS, LPS only 16.11) was 7.07 ng/mL, the “Cultured peritoneal macrophage IL-6” value ([1]; LPS 15 mg/kg IP, compound 15 mg/kg IP at 24, 12 and 1 hour before LPS, macrophages cultured 18 hours, LPS only 3.40) was 1.33 ng/mL and the “serum IL-1, IL-6, and TNF concentration” value ([1]; LPS 15 mg/kg, IP or oral gavage, variety of administration regimens) was “reductions”. For the same molecule, the “Serum IL-1 at 1.5 h, LPS + cpd” value ([1]; Oral gavage 5 mg/kg at −24 h, −1 h, LPS alone 237.0) was 182.5, the “Serum IL-1 at 1.5 h, LPS + cpd” value ([1]; Oral gavage 15 mg/kg at −24, −6, −1 h, LPS alone 103.7) was 47.1 and the “Serum IL-1 at 1.5 h, LPS + cpd” value ([1]; Oral gavage 15 mg/kg at −24 h, LPS alone 292.0) was 152.6. The “Serum IL-6 at 1.5 h, LPS + cpd” value ([1]; Oral gavage 15 mg/kg at −24 h, LPS alone 121100) was 80250, the total arthritis score ([2]; FIG. 10a, p=0.0024) was “statistically significant reduction” and the “severity of all individual parameters of arthritis” value ([2]; FIG. 10b) was “Statistically significant reductions”. For the same molecule, the “FLS proliferation, percentage of control (untreated) cell proliferation” value ([3]; IL-1β 0.1 ng/ml + compound 5 50 μM, mean±SEM of four experiments, IL-1 + vehicle 156 ± 32) was 18 ± 6 percentage of control and the “IL-1-induced FLS proliferation” value ([3]; compound 5 50 μM) was “marked and statistically significant inhibition”.
